# In patent US8551984B2, “Aminopyrimidines as SYK inhibitors” (Merck Sharp & Dohme Corp., priority 2009, dated 2013):
# Structures can show the parent of a compound that is named as a salt.
# Biological target: recombinant human SYK (GST-hSYK fusion protein) (Homo sapiens, UniProt P43405)
# Assay: biochemical
# Details: rhSYK Activity (IC50), recombinant human GST-SYK 5 pM, ATP 25 μM, biotinylated substrate peptide 250 nM, HTRF, 10-dose titration
# Excerpt: Homogeneous Time-Resolved Fluorescence (HTRF) Assay for the Recombinant Human SYK Enzyme:
row,Compound,IC50 [nM]
1,Cc1cc(Nc2nccc(C(F)(F)F)n2)cc(-c2cnc(CCC(=O)N3CCOCC3)s2)c1 [Example 79-5],< 100
2,Cc1cc(Nc2nccc(C(F)(F)F)n2)cc(-c2cnc(CCC(=O)NCCO)s2)c1 [Example 79-6],< 100
3,Cc1cc(Nc2nccc(C(F)(F)F)n2)cc(-c2cnc(CC(C)(C)C(=O)N(C)C)s2)c1 [Example 79-11],< 100
4,"Cc1cc(Nc2nccc(C(F)(F)F)n2)cc(-c2cnc(C(C)(C)C(=O)OC(C)(C)C)s2)c1 [Example 81, tert-Butyl 2-methyl-2-[5-(3-methyl-5-{[4-(trifluoromethyl)pyrimidin-2-yl]amino}phenyl)-1,3-thiazol-2-yl]propanoate]",100 to 1000
5,Cc1cc(Nc2nccc(C(F)(F)F)n2)cc(-c2cnc(C(C)(C)C(=O)N(C)C)s2)c1 [Example 85A-2],< 100
6,Cc1cc(Nc2nccc(C(F)(F)F)n2)cc(-c2cnc(C(C)(C)C(=O)N3CCOCC3)s2)c1 [Example 85A-3],< 100
7,"Cc1cc(Nc2nccc(C(F)(F)F)n2)cc(-c2cnc(C(=O)NC[C@@H](O)CO)s2)c1 [Example 87, N-[(2R)-2,3-dihydroxypropyl]-5-(3-methyl-5-{[4-(trifluoromethyl)pyrimidin-2-yl]amino}-phenyl)-1,3-thiazole-2-carboxamide]",< 100
8,Cc1cc(Nc2nccc(C(F)(F)F)n2)cc(-c2cnc(C(=O)NCCS(C)(=O)=O)s2)c1 [Example 87A-5],< 100
9,Cc1cc(Nc2nccc(C(F)(F)F)n2)cc(-c2cnc(C(=O)N(C)CCO)s2)c1 [Example 87A-6],< 100
10,Cc1cc(Nc2nccc(C(F)(F)F)n2)cc(-c2cnc(C(=O)NCC(C)O)s2)c1 (stereo not shown) [Example 87A-7],< 100
11,Cc1cc(Nc2nccc(C(F)(F)F)n2)cc(-c2cnc(C(=O)NC(C)CO)s2)c1 (stereo not shown) [Example 87A-8],< 100
12,CCC(CO)NC(=O)c1ncc(-c2cc(C)cc(Nc3nccc(C(F)(F)F)n3)c2)s1 (stereo not shown) [Example 87A-10],< 100
13,Cc1cc(Nc2nccc(C(F)(F)F)n2)cc(-c2cnc(C(=O)NCC(C)(C)O)s2)c1 [Example 87A-11],< 100
14,Cc1cc(Nc2nccc(C(F)(F)F)n2)cc(-c2cnc(C(=O)NC(C)(CO)CO)s2)c1 [Example 87A-12],< 100
15,Cc1cc(Nc2nccc(C(F)(F)F)n2)cc(-c2cnc(C(=O)NCc3cnn(C)c3)s2)c1 [Example 87A-13],100 to 1000
16,Cc1cc(Nc2nccc(C(F)(F)F)n2)cc(-c2cnc(C(=O)NCc3cncn3C)s2)c1 [Example 87A-14],< 100
17,Cc1cc(Nc2nccc(C(F)(F)F)n2)cc(-c2cnc(C(=O)NCCc3c[nH]cn3)s2)c1 [Example 87A-15],< 100
18,Cc1cc(Nc2nccc(C(F)(F)F)n2)cc(-c2cnc(C(=O)NC3(CO)CCCC3)s2)c1 [Example 87A-16],1000 to 10000
19,Cc1cc(Nc2nccc(C(F)(F)F)n2)cc(-c2cnc(C(=O)N(C)CCC3OCCO3)s2)c1 [Example 87A-17],100 to 1000
20,C=C(F)CNC(=O)c1ncc(-c2cc(C)cc(Nc3nccc(C(F)(F)F)n3)c2)s1 [Example 87A-19],< 100
21,Cc1cc(Nc2nccc(C(F)(F)F)n2)cc(-c2cnc(C(=O)NCC3COCCO3)s2)c1 (stereo not shown) [Example 87A-20],< 100
22,Cc1cc(Nc2nccc(C(F)(F)F)n2)cc(-c2cnc(C(=O)N(C)Cc3nccn3C)s2)c1 [Example 87A-21],< 100

row,Compound,IC50 [nM]
1,Cc1cc(Nc2nccc(C(F)(F)F)n2)cc(-c2cnc(C(=O)N(C)CC3COCCO3)s2)c1 (stereo not shown) [Example 87A-23],100 to 1000
2,COCC(O)CNC(=O)c1ncc(-c2cc(C)cc(Nc3nccc(C(F)(F)F)n3)c2)s1 (stereo not shown) [Example 87A-24],< 100
3,Cc1cc(Nc2nccc(C(F)(F)F)n2)cc(-c2cnc(C(=O)NCc3ncc[nH]3)s2)c1 [Example 87A-25],< 100
4,Cc1cc(Nc2nccc(C(F)(F)F)n2)cc(-c2cnc(C(=O)N(C)CC(O)CO)s2)c1 (stereo not shown) [Example 87A-26],< 100
5,Cc1cc(Nc2nccc(C(F)(F)F)n2)cc(-c2cnc(C(=O)N(C)CCS(C)(=O)=O)s2)c1 [Example 87A-27],1000 to 10000
6,Cc1cc(Nc2nccc(C(F)(F)F)n2)cc(-c2cnc(C(=O)N(CCO)CCO)s2)c1 [Example 87A-29],< 100
7,CNC(=O)CN(C)C(=O)c1ncc(-c2cc(C)cc(Nc3nccc(C(F)(F)F)n3)c2)s1 [Example 87A-30],< 100
8,Cc1cc(Nc2nccc(C(F)(F)F)n2)cc(-c2cnc(C(=O)N[C@H](c3ccccc3)[C@@H](O)C(=O)O)s2)c1 [Example 87A-32],< 100
9,Cc1cc(Nc2nccc(C(F)(F)F)n2)cc(-c2cnc(C(=O)NC(CO)(CO)CO)s2)c1 [Example 87A-34],< 100
10,Cc1cc(Nc2nccc(C(F)(F)F)n2)cc(-c2cnc(C(=O)NCCC(=O)O)s2)c1 [Example 87A-35],< 100
11,Cc1cc(Nc2nccc(C(F)(F)F)n2)cc(-c2cnc(C(=O)NCCCN(CCO)CCO)s2)c1 [Example 87A-36],< 100
12,Cc1cc(Nc2nccc(C(F)(F)F)n2)cc(-c2cnc(C(=O)NC3CCC(C(=O)O)CC3)s2)c1 (stereo not shown) [Example 87A-37],< 100
13,NC(=O)c1ncc(-c2cccc(Nc3nccc(C(F)(F)F)n3)c2)s1 [Example 87A-38],< 100
14,Cc1cc(Nc2nccc(C(F)(F)F)n2)cc(-c2cnc(C(=O)N3CCCC3)s2)c1 [Example 87B-1],100 to 1000
15,Cc1cc(Nc2nccc(C(F)(F)F)n2)cc(-c2cnc(C(=O)N3CCN(C)CC3)s2)c1 [Example 87B-3],100 to 1000
16,Cc1cc(Nc2nccc(C(F)(F)F)n2)cc(-c2cnc(C(=O)N3CCN(C)C(=O)C3)s2)c1 [Example 87B-4],< 100
17,Cc1cc(Nc2nccc(C(F)(F)F)n2)cc(-c2cnc(C(=O)N3CCN(C)C(=O)C3C)s2)c1 (stereo not shown) [Example 87B-5],100 to 1000
18,Cc1cc(Nc2nccc(C(F)(F)F)n2)cc(-c2cnc(C(=O)N3CCn4cccc4C3)s2)c1 [Example 87B-6],< 100
19,CC(=O)N1CCN(C(=O)c2ncc(-c3cc(C)cc(Nc4nccc(C(F)(F)F)n4)c3)s2)CC1 [Example 87B-7],100 to 1000
20,Cc1cc(Nc2nccc(C(F)(F)F)n2)cc(-c2cnc(C(=O)N3CCn4ccnc4C3)s2)c1 [Example 87B-9],< 100
21,Cc1cc(Nc2nccc(C(F)(F)F)n2)cc(-c2cnc(C(=O)N3CC[C@@H](CO)C3)s2)c1 [Example 87B-11],< 100

# More lines, now with the values ahead:
row,IC50 [nM],Compound
1,< 100,Cc1cc(Nc2nccc(C(F)(F)F)n2)cc(-c2cnc(CCc3nnco3)s2)c1 [Example 79-7]
2,< 100,Cc1cc(Nc2nccc(C(F)(F)F)n2)cc(-c2cnc(CCc3nnc(C)o3)s2)c1 [Example 79-8]
3,< 100,Cc1cc(Nc2nccc(C(F)(F)F)n2)cc(-c2cnc(CCc3nnc(C4CC4)o3)s2)c1 [Example 79-9]
4,< 100,Cc1cc(Nc2nccc(C(F)(F)F)n2)cc(-c2cnc(CC(C)(C)C(N)=O)s2)c1 [Example 79-10]
5,< 100,"Cc1cc(Nc2nccc(C(F)(F)F)n2)cc(-c2cnc(CCC(C)(C)O)s2)c1 [Example 80, 2-methyl-4-[5-(3-methyl-5-{[4-(trifluoromethyl)pyrimidin-2-yl]amino}phenyl)-1,3-thiazol-2-yl]butan-2-ol]"
6,< 100,"Cc1cc(Nc2nccc(C(F)(F)F)n2)cc(-c2cnc(C(C)(C)c3nnco3)s2)c1 [Example 82, N-(3-methyl-5-{2-[2-(1,3,4-oxadiazol-2-yl)propan-2-yl]-1,3-thiazol-5-yl}phenyl)-4-(trifluoromethyl)pyrimidin-2-amine]"
7,100 to 1000,"Cc1cc(Nc2nccc(C(F)(F)F)n2)cc(-c2cnc(C3(C(=O)OC(C)(C)C)CC3)s2)c1 [Example 83, tert-butyl 1-[5-(3-methyl-5-{[4-(trifluoromethyl)pyrimidin-2-yl]amino}phenyl)-1,3-thiazol-2-yl]cyclopropanecarboxylate]"
8,< 100,"Cc1cc(Nc2nccc(C(F)(F)F)n2)cc(-c2cnc(C3(C(=O)O)CC3)s2)c1 [Example 84, 1-[5-(3-methyl-5-{[4-(trifluoromethyl)pyrimidin-2-yl]amino}phenyl)-1,3-thiazol-2-yl]cyclopropanecarboxylic acid (TFA salt)]"
9,< 100,"Cc1cc(Nc2nccc(C(F)(F)F)n2)cc(-c2cnc(C3(c4nnco4)CC3)s2)c1 [Example 85, N-(3-methyl-5-{2-[1-(1,3,4-oxadiazol-2-yl)cyclopropyl]-1,3-thiazol-5-yl}phenyl)-4-(trifluoromethyl)pyrimidin-2-amine]"
10,< 100,Cc1cc(Nc2nccc(C(F)(F)F)n2)cc(-c2cnc(C(C)(C)C(N)=O)s2)c1 [Example 85A-1]
11,< 100,Cc1cc(Nc2nccc(C(F)(F)F)n2)cc(-c2cnc(C(C)(C)c3nnc(C)o3)s2)c1 [Example 85A-4]
12,< 100,Cc1cc(Nc2nccc(C(F)(F)F)n2)cc(-c2cnc(C3(C(=O)N(C)C)CC3)s2)c1 [Example 85B-1]
13,< 100,CNC(=O)C1(c2ncc(-c3cc(C)cc(Nc4nccc(C(F)(F)F)n4)c3)s2)CC1 [Example 85B-2]
14,< 100,Cc1cc(Nc2nccc(C(F)(F)F)n2)cc(-c2cnc(C3(C(N)=O)CC3)s2)c1 [Example 85B-3]
15,< 100,Cc1cc(Nc2nccc(C(F)(F)F)n2)cc(-c2cnc(C3(c4nnc(C)o4)CC3)s2)c1 [Example 85B-4]
16,< 100,"Cc1cc(Nc2nccc(C(F)(F)F)n2)cc(-c2cnc(C(=O)O)s2)c1 [Example 86, 5-(3-methyl-5-{[4-(trifluoromethyl)pyrimidin-2-yl]amino}phenyl)-1,3-thiazole-2-carboxylic acid]"
17,100 to 1000,Cc1cc(Nc2nccc(C(F)(F)F)n2)cc(-c2cnc(C(=O)NC(C)C)s2)c1 [Example 87A-1]
18,100 to 1000,Cc1cc(Nc2nccc(C(F)(F)F)n2)cc(-c2cnc(C(N)=O)s2)c1 [Example 87A-2]
19,< 100,Cc1cc(Nc2nccc(C(F)(F)F)n2)cc(-c2cnc(C(=O)NC3(CO)CC3)s2)c1 [Example 87A-9]
20,100 to 1000,CCN(C)C(=O)c1ncc(-c2cc(C)cc(Nc3nccc(C(F)(F)F)n3)c2)s1 [Example 87A-28]
21,< 100,Cc1cc(Nc2nccc(C(F)(F)F)n2)cc(-c2cnc(C(=O)N3CCC(C)(O)C3)s2)c1 (stereo not shown) [Example 87B-12]
